Reference: patent publication US8193173B2, “Liver function ameliorant” (Tokyo University of Agriculture and Technology TLO Co., Ltd., priority 2006, dated 2012)

What was measured:
plasminogen [1] = molecular target: T1, plasminogen (Homo sapiens, UniProt P00747); conditions: JP 2004-224737; cited from earlier work
plasminogen [2] = molecular target: T1, plasminogen; conditions: cited from earlier work
[3] = tested on: pulmonary embolism model rats; conditions: pulmonary embolism model rats in vivo; cited from earlier work
[4] = tested on: chronic hepatitis model mice; assay: Liver function ameliorative effects in chronic hepatitis model mice (carbon tetrachloride); plasma AST, ALT, ChE; type: in vivo, ICR mice
Experimental: Production of chronic hepatitis model mice was carried out according to a modified version of the method of Vogten et al. (J. Mathys Vogten et al., Int. J. Colorectal Dis. (2004), 19: 387-394).
ICR mice weighing about 30 g (age: 6 weeks, males, supplier: Sankyo Labo Service) were used in the experiment after preliminarily housing for 5 days while allowing free access to solid feed (Labo MR Stock) and distilled water. The animals were housed in an animal room set to conditions consisting of a temperature of 22±2° C., humidity of 60±5% and light-dark cycle of 12 hours.
Following preliminary housing, the animals were intraperitoneally administered carbon tetrachloride (10% corn oil solution (v/v)) three times a week. The initially dose was 330 μl/kg, the second dose was […], and all subsequent doses were 500 μl/kg. This administration was carried out over the course of six weeks to produce chronic hepatitis model mice.
After administering carbon tetrachloride for 6 weeks, the animals were divided into an orniplabin dose group and control group so as to be statistically equivalent (orniplabin dose group: 7 animals, control group: 6 animals). Orniplabin was continuously administered into the abdominal cavity at 10 mg/kg. The control group was continuously administered physiological saline into the abdominal cavity at 2 ml/kg. This procedure was carried out for 14 days.
Following completion of administration, blood samples were collected from the vena cava into a syringe barrel containing anticoagulant in the form of 3.8% sodium citrate solution ( 1/10 volume of collected blood), and the resulting blood was centrifuged immediately for 20 minutes at 3000 rpm to collect the supernatant for use as blood samples.
The levels of AST ([…], GOT), ALT (alanine aminotransferase, GPT) and ChE (cholinesterase) were measured for the resulting blood samples (Hitachi Model 7180 Autoanalyzer).

[5] = 10 mg/kg into the abdominal cavity for 14 days, versus normal level

T1 sequence (P00747 20-810 limits assumed, species assumed): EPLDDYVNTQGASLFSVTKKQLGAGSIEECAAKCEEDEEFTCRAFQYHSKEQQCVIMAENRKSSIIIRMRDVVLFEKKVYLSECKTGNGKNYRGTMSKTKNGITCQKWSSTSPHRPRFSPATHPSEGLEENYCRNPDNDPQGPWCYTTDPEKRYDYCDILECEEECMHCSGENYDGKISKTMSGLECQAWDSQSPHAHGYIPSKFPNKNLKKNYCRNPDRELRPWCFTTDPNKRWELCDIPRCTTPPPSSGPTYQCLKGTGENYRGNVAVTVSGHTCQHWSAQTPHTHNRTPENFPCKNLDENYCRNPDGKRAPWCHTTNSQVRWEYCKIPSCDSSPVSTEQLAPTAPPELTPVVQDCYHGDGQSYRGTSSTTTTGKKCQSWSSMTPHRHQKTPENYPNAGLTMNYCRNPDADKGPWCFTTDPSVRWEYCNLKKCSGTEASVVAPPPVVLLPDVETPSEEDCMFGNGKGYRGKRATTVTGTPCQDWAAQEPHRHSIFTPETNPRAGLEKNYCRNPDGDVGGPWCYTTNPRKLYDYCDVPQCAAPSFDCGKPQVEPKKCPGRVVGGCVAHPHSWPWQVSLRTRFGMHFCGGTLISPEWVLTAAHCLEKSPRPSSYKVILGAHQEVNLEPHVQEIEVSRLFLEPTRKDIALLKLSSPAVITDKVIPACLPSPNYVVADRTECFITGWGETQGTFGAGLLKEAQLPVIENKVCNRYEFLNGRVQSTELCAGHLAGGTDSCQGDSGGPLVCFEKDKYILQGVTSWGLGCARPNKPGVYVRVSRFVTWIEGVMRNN

In the case of `CC(C)=CCC/C(C)=C/CCC1(C)Oc2c(c(O)cc3c2CN(CCCC(C(=O)O)N2Cc4c(cc(O)c5c4OC(C)(CC/C=C(\C)CCC=C(C)C)C(O)C5)C2=O)C3=O)CC1O` (stereo not drawn) [orniplabin], the plasminogen activation (plasminogen [1]) is listed as “promotes plasminogen activation”, the “binding of plasminogen to fibrin” value (plasminogen [2]) is listed as “promotes binding of plasminogen to fibrin” and the “dissolution of pulmonary embolisms thrombus” value [3] is listed as “promotes dissolution of pulmonary embolisms thrombus”. For the same molecule, the “plasma AST, orniplabin dose group as compared with the control group” value ([4]; 10 mg/kg into the abdominal cavity for 14 days after 6 weeks carbon tetrachloride, FIG. 1) was “significant (P<0.01) decrease”, the “plasma ALT, orniplabin dose group versus control group” value ([4]; 10 mg/kg into the abdominal cavity for 14 days after 6 weeks carbon tetrachloride, FIG. 2) was “no significant differences observed” and the “plasma ChE, orniplabin dose group as compared with the control group” value ([4]; 10 mg/kg into the abdominal cavity for 14 days after 6 weeks carbon tetrachloride, FIG. 3) was “significant (P<0.01) increase”. The “plasma ALT, orniplabin dose group as compared with the normal group” value ([4]; 10 mg/kg into the abdominal cavity for 14 days, FIG. 2) was “increases were not observed”, the “cholinesterase levels (protein synthesis ability of the liver)” value [4, 5] was “recovered to the same level as the normal level” and the “degree of impaired liver function (AST and ALT)” value [4, 5] was “recover to nearly the normal level”.
